As usually defined, the IC50 is the concentration that inhibits the measured activity by half. For orientation: half-life means how long it takes for the measured level to halve. A low value points to rapid decline.

Molecules are shown by their SMILES. Active and inactive are the calls of the source. No cut-off for these calls is given here.

One series concerns U-87 MG. Kind of series: Cytotoxicity against human U87MG cells assessed as cell viability after 48 hrs by Alamar Blue assay. It counts as functional, cell-based, U-87MG ATCC.
The nature of series [1]: Cytotoxicity against human GBM6 cells assessed as cell viability after 48 hrs by Alamar Blue assay. It counts as functional, cell-based. Conditions: GBM6, 48 h. On the technique in general: Alamar Blue is a resazurin reagent that responds to reducing activity.
The nature of series [2]: Cytotoxicity against […] GL261-GFP-Luc cells assessed as cell viability after 48 hrs by Alamar Blue assay. It counts as functional, cell-based. The conditions noted are these: Mus musculus, GL261, 48 h.
Series [3] is described as follows: Drug uptake in CD1 mouse plasma at 100 mg/kg, po after 1 hr by LC-MS/MS analysis. Type of series: ADME, organism-based.
Series [4] in a line: Drug uptake in CD1 mouse perfused brain at 100 mg/kg, po after 1 hr by LC-MS/MS analysis. It counts as ADME, organism-based. Conditions: read-out: Drug uptake.
Series [5] in a line: Ratio of drug level in brain to plasma in CD1 mouse at 100 mg/kg, po after 1 hr by LC-MS/MS analysis. Conditions: read-out: BPR. It counts as ADME, organism-based.
For series [6], the system named is Plasma. Kind of series: Drug uptake in CD1 mouse plasma assessed as elimination product parthenolide at 100 mg/kg, po after 1 hr by LC-MS/MS analysis. Type of series: ADME, organism-based. Conditions: in vivo.
For series [7], the system named is Brain. Kind of series: Drug uptake in CD1 mouse perfused brain assessed as elimination product parthenolide at 100 mg/kg, po after 1 hr by LC-MS/MS analysis. Type of series: ADME, organism-based. The conditions noted are these: in vivo.
Series [8] in a line: Drug uptake in CD1 mouse plasma at 100 mg/kg, po after 4 hrs by LC-MS/MS analysis. It counts as ADME, organism-based.
The nature of series [9]: Drug uptake in CD1 mouse perfused brain at 100 mg/kg, po after 4 hrs by LC-MS/MS analysis. Type of series: ADME, organism-based. The conditions noted are these: read-out: Drug uptake.
Series [10] can be described thus: Ratio of drug level in brain to plasma in CD1 mouse at 100 mg/kg, po after 4 hrs by LC-MS/MS analysis. Type of series: ADME, organism-based. Conditions: read-out: BPR.
Series [11] has as its system Plasma. Kind of series: Drug uptake in CD1 mouse plasma assessed as elimination product parthenolide at 100 mg/kg, po after 4 hrs by LC-MS/MS analysis. It counts as ADME, organism-based. Conditions: in vivo.
Series [12] relates to Brain. Kind of series: Drug uptake in CD1 mouse perfused brain assessed as elimination product parthenolide at 100 mg/kg, po after 4 hrs by LC-MS/MS analysis. It counts as ADME, organism-based. The conditions noted are these: in vivo.
The test system of a further series is Nucleic Acid. Kind of series: Ratio of drug level in brain to plasma in CD1 mouse assessed as elimination product parthenolide at 100 mg/kg, po after 4 hrs by LC-MS/MS analysis. It counts as ADME, organism-based.
Series [13] is described as follows: Half life in mouse serum. It counts as ADME, cell-free.
The nature of series [14]: Ratio of drug level in brain to plasma in Wistar rat at 100 mg/kg, po after 30 mins by UPLC-MS/MS analysis. The conditions noted are these: read-out: BPR. Type of series: ADME, organism-based.
Series [15] can be described thus: Ratio of drug level in brain to plasma in Wistar rat at 100 mg/kg, po after 3 hrs by UPLC-MS/MS analysis. Type of series: ADME, organism-based. The conditions noted are these: read-out: BPR.
For series [16], the system named is Mus musculus. Kind of series: Toxicity in C57BL/6 mouse assessed as WBC count at 100 mg/kg, po formulated in HP-beta CD. The conditions noted are these: in vivo. Type of series: organism-based.
Series [17] deals with Mus musculus. Kind of series: Toxicity in C57BL/6 mouse assessed as RBC count at 100 mg/kg, po formulated in HP-beta CD. It counts as organism-based. The conditions noted are these: in vivo.
Series [18] deals with Mus musculus. Kind of series: Toxicity in C57BL/6 mouse assessed as hemoglobin level at 100 mg/kg, po formulated in HP-beta CD. Type of series: organism-based. Conditions: in vivo.
Series [19] has as its system Mus musculus. Kind of series: Toxicity in C57BL/6 mouse assessed as platelet count at 100 mg/kg, po formulated in HP-beta CD. Type of series: organism-based. Conditions: in vivo.
Series [20] deals with GL261. Kind of series: Antitumor activity in mouse GL261-GFP-Luc cells allografted in C57BL/6J mouse assessed as delay in tumor growth at 100 mg/kg, po relative to control. Type of series: functional, organism-based.
Series [21] relates to GL261. Kind of series: Antitumor activity in mouse GL261-GFP-Luc cells allografted in C57BL/6J mouse assessed as increase in mouse survival time at 100 mg/kg, po relative to control. Type of series: functional, organism-based.

With `C/C1=C\CC[C@@]2(C)O[C@H]2[C@H]2OC(=O)[C@@H](CN(C)C)[C@@H]2CC1`, the half-maximal inhibitory concentration (IC50) with U-87 MG worked out at 8.8 µM; in series [1], 3.5 µM; in series [2], 6.9 µM. The concentration at 1 h in series [3] is 2960 ng/mL; in [4] it was 6250 ng/g. Besides, in series [5], the Kp at 1 h stood at 2.1. For the same compound, the Cp with Plasma [6] worked out at 2142 ng/mL; with Plasma [11] it was 211 ng/mL. Moreover, the Drug uptake in the series with Brain [7] was 2402 ng/g; with Brain [12] it was 113 ng/g. Also, the concentration at 4 h in [8] amounted to 115 ng/mL; in [9] it was 342 ng/g. Also, the Kp at 4 h in [10] is 3. The BPR in the series with Nucleic Acid worked out at 0.5. In addition, in [13], the half-life is 37.8 min. The Kp at 0.5 h in [14] was 1.84. Besides, in [15], the Kp at 3 h came to 1.91. For the same compound, the Activity result with Mus musculus [16], in the series on Mus musculus [17], in the series on Mus musculus [18] and in the series with Mus musculus [19] was “Non-toxic” throughout. Besides, the result in the series with GL261 [20] and in the series with GL261 [21] was Active.
Consider `C=C1C(=O)O[C@@H]2C3O[C@]3(C)CC/C=C(\C)CC[C@@H]12` (stereo partly specified), for which the IC50 was 8.8 µM with U-87 MG, 3.4 µM in series [1] and 7.6 µM in [2].

The values above are taken from ChEMBL document CHEMBL3580593, “Parthenolide prodrug LC-1 slows growth of intracranial glioma” (Bioorg Med Chem Lett, 2015).
